# Test results from patent US6262075A, “Piperidone tachykinin antagonists” (Pfizer Inc, priority 1996, dated 2001).
# pKi: −log10 of the molar value.
# Target: T1, human NK2 receptor (Homo sapiens, UniProt P21452)
# T1 construct: expressed in transfected cells; host or cells: Chinese hamster ovary cells (membranes)
# T1 sequence (P21452 1-398): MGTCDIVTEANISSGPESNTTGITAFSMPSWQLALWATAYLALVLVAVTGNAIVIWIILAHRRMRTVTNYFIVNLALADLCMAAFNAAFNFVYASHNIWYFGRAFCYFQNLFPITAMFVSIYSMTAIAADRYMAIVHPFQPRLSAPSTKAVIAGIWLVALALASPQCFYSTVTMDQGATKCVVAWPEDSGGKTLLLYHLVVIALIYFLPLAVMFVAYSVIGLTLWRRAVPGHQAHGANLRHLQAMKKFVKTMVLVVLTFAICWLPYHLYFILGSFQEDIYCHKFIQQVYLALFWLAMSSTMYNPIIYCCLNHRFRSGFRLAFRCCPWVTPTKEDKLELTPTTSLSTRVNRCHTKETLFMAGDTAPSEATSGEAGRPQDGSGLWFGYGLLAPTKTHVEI
# Test: affinity for the human NK2 receptor, competition with [^3 H] NKA for binding to membranes prepared from Chinese hamster ovary cells
# Conditions: membranes from Chinese hamster ovary cells expressing the cloned human NK2 receptor, negative logarithm of the molar affinity
# Experimental: The affinity of the compounds of formula (I) and their salts for the human NK2 receptor can be tested in vitro by testing their ability to compete with [^3 H] or [^125 I]NKA (neurokinin A) for binding to membranes prepared from Chinese hamster ovary cells expressing the cloned human NK2 receptor. In this method, washed Chinese hamster ovary cell membranes are prepared as described for the previous method where IM9 cells are used instead. The membranes are incubated (90 min, 25° C.) with [^3 H] or [^125 I]NKA and with a range of concentrations of the test compound. Non-specific binding was determined in the presence of 10 μM NKA.
# The affinity of a selection of the compounds of the preceding Examples for the human NK2 receptor was tested in vitro by testing their ability to compete with [^3 H] NKA for binding to membranes prepared from Chinese hamster ovary cells expressing the cloned human NK2 receptor using the method set out on page 26.
# The "pKi" measurement is the negative logarithm of the molar affinity of the compound for the receptor as determined in radioligand binding assays using standard protocols.
row,pKi,SMILES
1,9.20,O=C1CC[C@](CCN2CC(N3CCC(F)CC3)C2)(c2ccc(Cl)c(Cl)c2)CN1CC1CCC(F)(F)CC1 [Example 1]
2,10.30,O=C1CCC(CCN2CC(N3CCC(F)CC3)C2)(c2ccc(Cl)c(Cl)c2)CN1C1CCCCC1 (stereo not shown) [Example 2]
3,10.00,O=C1CCC(CCN2CC(N3CCC(F)CC3)C2)(c2ccc(Cl)c(Cl)c2)CN1C1(C2CC2)CCCC1 (stereo not shown) [Example 3]
4,8.60,O=C1CCC(CCN2CC(N3CCC(F)CC3)C2)(c2ccc(Cl)c(Cl)c2)CN1CCC1CC1 (stereo not shown) [Example 4]
